According to PubChem BioAssay (NCI):
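Dose response: 5 concentrations. Exposure: 48 h. Format: 96-well plates. Endpoint: linear interpolation; highest concentration if not reached. GI50 is the concentration that inhibits growth by half. Definition used: TGI = concentration required for complete inhibition of growth.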

How the values were obtained:
Assay in all cases: NCI-60 cell line screen, 48 h
[1] = tested on: HS 578T breast
[2] = tested on: SK-MEL-28 melanoma
[3] = tested on: T-47D breast
[4] = tested on: HCT-116 colon
[5] = tested on: DU-145 prostate
[6] = tested on: OVCAR-5 ovarian
[7] = tested on: NCI-H522 lung
[8] = tested on: A498 renal
[9] = tested on: MDA-MB-435
[10] = tested on: K-562 leukemia
[11] = tested on: SNB-19 CNS
[12] = tested on: CAKI-1 renal
[13] = tested on: MOLT-4 leukemia
[14] = tested on: UO-31 renal
[15] = tested on: HCT-15 colon
[16] = tested on: MDA-MB-231 breast
[17] = tested on: COLO 205 colon
[18] = tested on: SK-OV-3 ovarian
[19] = tested on: UACC-62 melanoma
[20] = tested on: OVCAR-3 ovarian
[21] = tested on: BT-549 breast
[22] = tested on: MCF7 breast
[23] = tested on: M14 melanoma
[24] = tested on: OVCAR-8 ovarian
[25] = tested on: NCI/ADR-RES ovarian
[26] = tested on: UACC-257 melanoma
[27] = tested on: SF-539 CNS
[28] = tested on: 786-0 renal
[29] = tested on: HT29 colon
[30] = tested on: MALME-3M melanoma
[31] = tested on: NCI-H23 lung
[32] = tested on: SF-268 CNS
[33] = tested on: SK-MEL-2 melanoma
[34] = tested on: RPMI-8226 leukemia
[35] = tested on: SW-620 colon
[36] = tested on: IGROV1 ovarian
[37] = tested on: EKVX NSCLC
[38] = tested on: HOP-62 NSCLC
[39] = tested on: SNB-75 CNS
[40] = tested on: TK-10 renal
[41] = tested on: KM12 colon
[42] = tested on: ACHN renal
[43] = tested on: CCRF-CEM leukemia
[44] = tested on: SN12C renal
[45] = tested on: HCC-2998 colon
[46] = tested on: SR leukemia
[47] = tested on: OVCAR-4 ovarian
[48] = tested on: HL-60(TB) leukemia
[49] = tested on: LOX IMVI melanoma
[50] = tested on: PC-3 prostate
[51] = tested on: RXF 393 renal
[52] = tested on: U251 CNS
[53] = tested on: NCI-H460 lung
[54] = tested on: A549 NSCLC

`COc1cc2nc(SCC(=O)Nc3cc(OC)c(OC)c(OC)c3)n(Cc3ccccc3)c(=O)c2cc1OC` was tested, and the GI50 [1] was 2.46 µM, the TGI [1] was 9.45 µM and the GI50 [2] was 3.02 µM. It also gave a TGI [2] of 11.4 µM, a GI50 [3] of 6.57 µM and a TGI [3] greater than 100 µM. The GI50 [4] was 6.74 µM, the TGI [4] was 78.9 µM and the GI50 [5] was 7.44 µM. It also gave a TGI [5] greater than 100 µM, a GI50 [6] greater than 100 µM and a TGI [6] greater than 100 µM. It also gave a GI50 [7] of 3.65 µM, a TGI [7] of 32.4 µM and a GI50 [8] of 1.75 µM. For the same molecule, the TGI [8] was 32.5 µM, the GI50 [9] was 4.91 µM and the TGI [9] was greater than 100 µM. The GI50 [10] was greater than 100 µM, the TGI [10] was greater than 100 µM and the GI50 [11] was 2.92 µM. The TGI [11] was 18.1 µM, the GI50 [12] was 3.05 µM and the TGI [12] was 28.8 µM. For the same molecule, the GI50 [13] was greater than 100 µM, the TGI [13] was greater than 100 µM and the GI50 [14] was 1.95 µM. For the same molecule, the TGI [14] was 8.85 µM, the GI50 [15] was greater than 100 µM and the TGI [15] was greater than 100 µM. The GI50 [16] was 3.73 µM, the TGI [16] was 37.8 µM and the GI50 [17] was 15.3 µM. It also gave a TGI [17] of 33 µM, a GI50 [18] of 2.91 µM and a TGI [18] of 7.26 µM. The GI50 [19] was 2.35 µM, the TGI [19] was 6.82 µM and the GI50 [20] was 7.68 µM. It also gave a TGI [20] of 50.3 µM, a GI50 [21] of 2.02 µM and a TGI [21] of 5.61 µM. It also gave a GI50 [22] of 7.93 µM, a TGI [22] greater than 100 µM and a GI50 [23] of 16.1 µM. It also gave a TGI [23] greater than 100 µM, a GI50 [24] of 3.46 µM and a TGI [24] of 34.9 µM. For the same molecule, the GI50 [25] was 3.3 µM, the TGI [25] was 11.6 µM and the GI50 [26] was 3.55 µM. It also gave a TGI [26] greater than 100 µM, a GI50 [27] of 2.37 µM and a TGI [27] of 5.78 µM. For the same molecule, the GI50 [28] was 3.51 µM, the TGI [28] was 17.6 µM and the GI50 [29] was 16.6 µM. For the same molecule, the TGI [29] was 38.7 µM, the GI50 [30] was 3.3 µM and the TGI [30] was greater than 100 µM. The GI50 [31] was 4.17 µM, the TGI [31] was 50.3 µM and the GI50 [32] was 3.57 µM. For the same molecule, the TGI [32] was 23.2 µM, the GI50 [33] was 3.41 µM and the TGI [33] was 10.6 µM. It also gave a GI50 [34] greater than 100 µM, a TGI [34] greater than 100 µM and a GI50 [35] greater than 100 µM. For the same molecule, the TGI [35] was greater than 100 µM, the GI50 [36] was 7.34 µM and the TGI [36] was greater than 100 µM. It also gave a GI50 [37] of 5.12 µM, a TGI [37] of 31.1 µM and a GI50 [38] of 2.03 µM. The TGI [38] was 4.28 µM, the GI50 [39] was 1.57 µM and the TGI [39] was 3.38 µM. The GI50 [40] was 4.06 µM, the TGI [40] was 21.5 µM and the GI50 [41] was greater than 100 µM. The TGI [41] was greater than 100 µM, the GI50 [42] was 4.63 µM and the TGI [42] was greater than 100 µM. For the same molecule, the GI50 [43] was greater than 100 µM, the TGI [43] was greater than 100 µM and the GI50 [44] was 4.7 µM. It also gave a TGI [44] greater than 100 µM, a GI50 [45] of 50.6 µM and a TGI [45] greater than 100 µM. It also gave a GI50 [46] of 40.9 µM, a TGI [46] greater than 100 µM and a GI50 [47] of 2.11 µM. For the same molecule, the TGI [47] was 5.56 µM, the GI50 [48] was greater than 100 µM and the TGI [48] was greater than 100 µM. For the same molecule, the GI50 [49] was 4.71 µM, the TGI [49] was greater than 100 µM and the GI50 [50] was 3.2 µM. For the same molecule, the TGI [50] was greater than 100 µM, the GI50 [51] was 2.55 µM and the TGI [51] was 8.35 µM. The GI50 [52] was 3.18 µM, the TGI [52] was 11.2 µM and the GI50 [53] was 6.72 µM. The TGI [53] was greater than 100 µM, the GI50 [54] was 5.13 µM and the TGI [54] was greater than 100 µM.
